In PMC12198282, “Application of a high-density microelectrode array assay using a 3D human iPSC-derived brain microphysiological system model for in vitro neurotoxicity screening of environmental compounds” (Archives of Toxicology, 2025):
Like-named read-outs stand apart in the source and are kept apart here.

Legend:
[1] = test system: human iPSC-derived 3D BrainSpheres; assay: BrainSphere MEA assay (HD-MEA, 13-day exposure, concentration-response); assay type: cell-based; details: for EC (benchmark response 1.349 SD): 312 h; for AC50: concentration at 50% maximal activity, Supplement 3 prints it also for curves with hit call 0; on hitc Mean.Spheroid.Burst.Duration: key: 1 (active); 0 (inactive); on hitc Mean.Spheroid.Burst.ISI: key: 1 (active); 0 (inactive); on hitc Mean.Spheroid.Burst.Peak.Firing.Rate: key: 1 (active); 0 (inactive); on hitc Mean.Spheroid.Firing.Rate: key: 1 (active); 0 (inactive); on hitc Mean.Spheroid.IBI: key: 1 (active); 0 (inactive); on hitc Mean.Spheroid.Nonburst.ISI: key: 1 (active); 0 (inactive); on hitc Mean.Spheroid.Spikes.per.Burst.per.Electrode: key: 1 (active); 0 (inactive); on hitc Mean.Spheroid.Spikes.per.Burst: key: 1 (active); 0 (inactive); on hitc Spheroid.Burst.Frequency: key: 1 (active); 0 (inactive); on hitc Spheroid.Spike.Amplitude.90th.Percentile: key: 1 (active); 0 (inactive)
Protocol: A volume of 1 ml of Tergazyme (1% solution in deionized water) was added to each well of the MaxTwo 6-Well Plate (MaxWell Biosystems) and incubated overnight under constant gyratory shaking (88 RPM) at 37 °C and 5% CO2. The next day, Tergazyme solution was removed, and plates were washed with distilled water and ethanol. After remaining ethanol was evaporated, wells were washed with PBS. Then, 200 µl of Poly-D-Lysine (Gibco, A38904 - 01) was added on top of the electrodes and incubated at 37 °C and 5% CO2 for 3 h (humidified). Poly-D-Lysine was then removed, and wells were coated with 100 µl of 0.1 mg/ml laminin coating solution (Sigma-Aldrich, L2020 - 1 mg) and incubated for 2 h at 37 ℃ and 5% CO2 (humidified). The laminin was removed after incubation. Using a 1 ml micropipette, 1 ml of medium containing BrainSpheres (7 weeks differentiated), approximately 25 BrainSpheres per ml, was plated on top of the HD-MEA chip (Fig. 1A). Afterwards, the plate was placed in an incubator at 37 °C and 5% CO2 and moved in circles to accumulate the BrainSpheres on top of the electrode area (Fig. 1A). The plate was kept in an incubator (humidified) for 2 days to allow attachment of the BrainSpheres with no gyratory shaking of the plates.
The MaxTwo high-density microelectrode array system (MaxWell Biosystems AG, Zurich, Switzerland) was used to measure neural activity with MaxTwo 6-well plates, where every well includes an integrated chip with 26,400 platinum electrodes arranged in an area of 3.85 × 2.10 mm^2 ([…]) (Muller et al. [2015]). The data were recorded and analyzed with the MaxLab Live Software (version 22.2.22). First, the MaxLab live ActivityScan Assay was used to identify the activity and positioning of the BrainSpheres on the array by scanning all the 26,400 electrodes in 29 configurations in a well (Assay Parameters: Configuration = Full; Recording time per configuration = 60 s (s)). The settings gain = 512, high-pass-filter (HPF): ~ 1 Hz and spike threshold = 5 X root-mean square (RMS) noise were used for all HD-MEA recordings. Circular regions of interest (ROI) were manually selected in the Activity Map where neuronal activity was apparent by an increased activity (Fig. 2). Over the course of the 13-day experiment, the same selected regions and electrodes were measured using the MaxLab Live Network Assay (600 s recording time).
A custom analysis framework was used to extract the MaxLab Live neuronal metrics for the individual BrainSpheres. For this, electrodes comprising a single ROI (i.e., individual BrainSphere; Fig. 2D) were grouped using distance-based clustering (fcluster method of Scipy library, Python 3.7) and neural metrics were calculated for the clustered electrodes for every ROI separately. Figure 2E presents a raster plot illustrating the activity associated with individual Regions of Interest (ROIs). […] Ten MaxLab Live neural metrics (endpoints) were evaluated from the MaxLab live ActivityScan and Network Assay in this study. See Table 3 for the endpoint definitions, tuned parameters, and activity type (general versus network connectivity).
The BrainSphere MEA assay measured changes in neural activity during a 13-day chemical exposure. The first recording day of the concentration–response screening protocol (day of exposure (DOE) 0) occurred after 7 weeks of BrainSphere differentiation, 48 h after plating on HD-MEA plates (Fig. 1B). The study included at least three biological replicates (one well per plate) from separate experiments (e.g., three different plates on three different days) and each well included multiple BrainSpheres which were considered technical replicates.

2D rat cortical cultures [2] = details: cited from earlier work; for AC50: rNFA mc5
2D rat cortical cultures [3] = details: rNFA mc5 hit call; cytotoxicity LDH; cited from earlier work
[4] = AUC over 13-day exposure, tcplfit2
[5] = tcplfit2 BMD at benchmark response (1.349*SD of baseline controls)
[6] = tcplfit2 output ACC, activity cutoff in Supplemental Table 1
Wherever hitc CCTE Shafer MEA dev active electrodes number is given: key: 1 (active); 0 (inactive).
Wherever hitc CCTE Shafer MEA dev burst duration mean is given: key: 1 (active); 0 (inactive).
Wherever hitc CCTE Shafer MEA dev burst rate is given: key: 1 (active); 0 (inactive).
Wherever hitc CCTE Shafer MEA dev bursting electrodes number is given: key: 1 (active); 0 (inactive).
Wherever hitc CCTE Shafer MEA dev correlation coefficient mean is given: key: 1 (active); 0 (inactive).
Wherever hitc CCTE Shafer MEA dev firing rate mean is given: key: 1 (active); 0 (inactive).
Wherever hitc CCTE Shafer MEA dev inter network spike interval mean is given: key: 1 (active); 0 (inactive).
Wherever hitc CCTE Shafer MEA dev interburst interval mean is given: key: 1 (active); 0 (inactive).
Wherever hitc CCTE Shafer MEA dev mutual information norm is given: key: 1 (active); 0 (inactive).
Wherever hitc CCTE Shafer MEA dev network spike duration std is given: key: 1 (active); 0 (inactive).
Wherever hitc CCTE Shafer MEA dev network spike number is given: key: 1 (active); 0 (inactive).
Wherever hitc CCTE Shafer MEA dev network spike peak is given: key: 1 (active); 0 (inactive).
Wherever hitc CCTE Shafer MEA dev per burst interspike interval is given: key: 1 (active); 0 (inactive).
Wherever hitc CCTE Shafer MEA dev per burst spike percent is given: key: 1 (active); 0 (inactive).
Wherever hitc CCTE Shafer MEA dev per network spike spike number mean is given: key: 1 (active); 0 (inactive).
Wherever hitc CCTE Shafer MEA dev per network spike spike percent is given: key: 1 (active); 0 (inactive).
Wherever hitc CCTE Shafer MEA dev spike duration mean is given: key: 1 (active); 0 (inactive).

CC(C)(c1ccc(O)cc1)c1ccc(O)cc1 [Bisphenol A]
Difference of minimum potency between BrainSphere MEA assay and rNFA ([1]; 5th percentile of AC50 values by chemical, above 0.5 = more potent in the rNFA): ≤ 0.5 log10 µM | hitc Mean.Spheroid.Burst.Duration [1, 4]: 1 | hitc Mean.Spheroid.Burst.ISI [1, 4]: 1 | hitc Mean.Spheroid.Burst.Peak.Firing.Rate [1, 4]: 1 | hitc Mean.Spheroid.Firing.Rate [1, 4]: 1 | hitc Mean.Spheroid.IBI [1, 4]: 1 | hitc Mean.Spheroid.Nonburst.ISI [1, 4]: 0 | hitc Mean.Spheroid.Spikes.per.Burst [1, 4]: 1 | hitc Mean.Spheroid.Spikes.per.Burst.per.Electrode [1, 4]: 1 | hitc Spheroid.Burst.Frequency [1, 4]: 1 | hitc Spheroid.Spike.Amplitude.90th.Percentile [1, 4]: 1 | EC50 ([1]; Homo sapiens, 5th percentile across active AC50 values per chemical, read-out: Minimum potency): 29.1 µM | EC (benchmark response 1.349 SD) ([1]; Homo sapiens, tcplfit2 BMD at benchmark response (1.349*SD of baseline controls), read-out: BMD Mean.Spheroid.Burst.ISI): 27 µM | EC (benchmark response 1.349 SD) ([1]; Homo sapiens, tcplfit2 BMD at benchmark response (1.349*SD of baseline controls), read-out: BMD Mean.Spheroid.Nonburst.ISI): 50 µM | AC50 ([1]; Homo sapiens, read-out: ac50 Mean.Spheroid.Burst.Duration): 29.4 µM | AC50 ([1]; Homo sapiens, read-out: ac50 Mean.Spheroid.Burst.ISI): 29.2 µM | AC50 ([1]; Homo sapiens, read-out: ac50 Mean.Spheroid.Burst.Peak.Firing.Rate): 30 µM | AC50 ([1]; Homo sapiens, read-out: ac50 Mean.Spheroid.Firing.Rate): 29 µM | AC50 ([1]; Homo sapiens, read-out: ac50 Mean.Spheroid.IBI): 45 µM | AC50 ([1]; Homo sapiens, read-out: ac50 Mean.Spheroid.Nonburst.ISI): 45 µM | AC50 ([1]; Homo sapiens, read-out: ac50 Mean.Spheroid.Spikes.per.Burst): 45 µM | AC50 ([1]; Homo sapiens, read-out: ac50 Mean.Spheroid.Spikes.per.Burst.per.Electrode): 29.1 µM | AC50 ([1]; Homo sapiens, read-out: ac50 Spheroid.Burst.Frequency): 45 µM | AC50 ([1]; Homo sapiens, read-out: ac50 Spheroid.Spike.Amplitude.90th.Percentile): 45 µM | EC50 ([1]; Homo sapiens, mean across active AC50 values per chemical, read-out: Mean potency): 36.3 µM | AC50 ([1]; read-out: ac50 Mean.Spheroid.Burst.Peak.Firing.Rate): 29.6 µM | AC50 ([1]; read-out: ac50 Mean.Spheroid.Firing.Rate): 29.3 µM | Percent active ([1]; metrics active out of the total number of metrics screened): 90% | BMD Mean.Spheroid.Burst.Duration [1, 5]: 28 µM | BMD Mean.Spheroid.Burst.Peak.Firing.Rate [1, 5]: 28 µM | BMD Mean.Spheroid.Firing.Rate [1, 5]: 30 µM | BMD Mean.Spheroid.IBI [1, 5]: 31 µM | BMD Mean.Spheroid.Spikes.per.Burst [1, 5]: 40 µM | BMD Mean.Spheroid.Spikes.per.Burst.per.Electrode [1, 5]: 28 µM | BMD Spheroid.Burst.Frequency [1, 5]: 47 µM | BMD Spheroid.Spike.Amplitude.90th.Percentile [1, 5]: 33 µM | ACC Mean.Spheroid.Burst.Duration [1, 6]: 27 µM | ACC Mean.Spheroid.Burst.ISI [1, 6]: 26 µM | ACC Mean.Spheroid.Burst.Peak.Firing.Rate [1, 6]: 28 µM | ACC Mean.Spheroid.Firing.Rate [1, 6]: 31 µM | ACC Mean.Spheroid.IBI [1, 6]: 44 µM | ACC Mean.Spheroid.Nonburst.ISI [1, 6]: 58 µM | ACC Mean.Spheroid.Spikes.per.Burst [1, 6]: 50 µM | ACC Mean.Spheroid.Spikes.per.Burst.per.Electrode [1, 6]: 29 µM | ACC Spheroid.Burst.Frequency [1, 6]: 42 µM | ACC Spheroid.Spike.Amplitude.90th.Percentile [1, 6]: 44 µM | Hits ([1]; total number of active endpoints out of 10 MEA activity metrics, 13-day exposure): 9 | Number of active endpoints in the rNFA (2D rat cortical cultures [2]; of 17 MEA endpoints, ref Brown et al. [2016], Carstens et al. [2022], Frank et al. [2017b], Shafer et al. [2019], ToxCast invitrodb (v4.2)): two | AC50 (2D rat cortical cultures [2]; aenm active_electrodes_number, read-out: ac50 CCTE_Shafer_MEA_dev_active_electrodes_number): 15 µM | AC50 (2D rat cortical cultures [2]; aenm bursting_electrodes_number, read-out: ac50 CCTE_Shafer_MEA_dev_bursting_electrodes_number): 9.89 µM | hitc CCTE_Shafer_MEA_dev_active_electrodes_number (2D rat cortical cultures [2]; rNFA mc5 hit call, aenm active_electrodes_number): 1 | hitc CCTE_Shafer_MEA_dev_burst_duration_mean (2D rat cortical cultures [2]; rNFA mc5 hit call, aenm burst_duration_mean): 0 | hitc CCTE_Shafer_MEA_dev_burst_rate (2D rat cortical cultures [2]; rNFA mc5 hit call, aenm burst_rate): 0 | hitc CCTE_Shafer_MEA_dev_bursting_electrodes_number (2D rat cortical cultures [2]; rNFA mc5 hit call, aenm bursting_electrodes_number): 1 | hitc CCTE_Shafer_MEA_dev_correlation_coefficient_mean (2D rat cortical cultures [2]; rNFA mc5 hit call, aenm correlation_coefficient_mean): 0 | hitc CCTE_Shafer_MEA_dev_firing_rate_mean (2D rat cortical cultures [2]; rNFA mc5 hit call, aenm firing_rate_mean): 0 | hitc CCTE_Shafer_MEA_dev_inter_network_spike_interval_mean (2D rat cortical cultures [2]; rNFA mc5 hit call, aenm inter_network_spike_interval_mean): 0 | hitc CCTE_Shafer_MEA_dev_interburst_interval_mean (2D rat cortical cultures [2]; rNFA mc5 hit call, aenm interburst_interval_mean): 0 | hitc CCTE_Shafer_MEA_dev_mutual_information_norm (2D rat cortical cultures [2]; rNFA mc5 hit call, aenm mutual_information_norm): 0 | hitc CCTE_Shafer_MEA_dev_network_spike_duration_std (2D rat cortical cultures [2]; rNFA mc5 hit call, aenm network_spike_duration_std): 0 | hitc CCTE_Shafer_MEA_dev_network_spike_number (2D rat cortical cultures [2]; rNFA mc5 hit call, aenm network_spike_number): 0 | hitc CCTE_Shafer_MEA_dev_network_spike_peak (2D rat cortical cultures [2]; rNFA mc5 hit call, aenm network_spike_peak): 0 | hitc CCTE_Shafer_MEA_dev_per_burst_interspike_interval (2D rat cortical cultures [2]; rNFA mc5 hit call, aenm per_burst_interspike_interval): 0 | hitc CCTE_Shafer_MEA_dev_per_burst_spike_percent (2D rat cortical cultures [2]; rNFA mc5 hit call, aenm per_burst_spike_percent): 0 | hitc CCTE_Shafer_MEA_dev_per_network_spike_spike_number_mean (2D rat cortical cultures [2]; rNFA mc5 hit call, aenm per_network_spike_spike_number_mean): 0 | hitc CCTE_Shafer_MEA_dev_per_network_spike_spike_percent (2D rat cortical cultures [2]; rNFA mc5 hit call, aenm per_network_spike_spike_percent): 0 | hitc CCTE_Shafer_MEA_dev_spike_duration_mean (2D rat cortical cultures [2]; rNFA mc5 hit call, aenm spike_duration_mean): 0 | hitc CCTE_Shafer_MEA_dev_LDH (2D rat cortical cultures [3]): 0
